From patent US9963442B2, “Pyridones as herbicides” (E I DU PONT DE NEMOURS AND COMPANY, priority 2014, dated 2018)

Legend:
Format in all cases: in vivo
[1] = system: Italian ryegrass (Lolium multiflorum); experiment: Test A preemergence, directed soil spray; conditions: approx. 10 days
In short: (§1)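 Seeds sown in loam–sand blend received a directed soil spray preemergence; plants at 2–10 cm, one- to two-leaf stage, were sprayed postemergence. Compounds in non-phytotoxic solvent with surfactant. After about 10 days in greenhouse, injury rated visually versus untreated controls, 0 (no effect) to 100 (complete control).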

[2] = system: barnyardgrass (Echinochloa crus-galli); experiment: Test A preemergence, directed soil spray; conditions: approx. 10 days
In short: as §1

[3] = system: giant foxtail (Setaria faberii); experiment: Test A preemergence, directed soil spray; conditions: approx. 10 days
In short: as §1

kochia (Kochia scoparia) = experiment: Test A preemergence, directed soil spray; conditions: approx. 10 days
In short: as §1

[4] = system: pigweed (Amaranthus retroflexus); experiment: Test A preemergence, directed soil spray; conditions: approx. 10 days
In short: as §1

[5] = system: ragweed (common ragweed, Ambrosia elatior); experiment: Test A preemergence, directed soil spray; conditions: approx. 10 days
In short: as §1

[6] = system: barnyardgrass (Echinochloa crus-galli); experiment: Test C preemergence; conditions: scale 0 to 100, 0 is no effect, 100 is complete control
In short: (§2)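 Surfactant-containing, non-phytotoxic solvent formulation applied either to soil right after sowing (loam/sand) or over the top of emerged plants 2–18 cm tall. Effects were scored visually after 13–15 days, where 0 means no effect and 100 complete control.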

[7] = system: blackgrass (Alopecurus myosuroides); experiment: Test C preemergence; conditions: scale 0 to 100, 0 is no effect, 100 is complete control
In short: as §2

corn (Zea mays) = experiment: Test C preemergence; conditions: scale 0 to 100, 0 is no effect, 100 is complete control
In short: as §2

[8] = system: johnsongrass (Sorghum halepense); experiment: Test C preemergence; conditions: scale 0 to 100, 0 is no effect, 100 is complete control
In short: as §2

[9] = system: lambsquarters (Chenopodium album); experiment: Test C preemergence; conditions: scale 0 to 100, 0 is no effect, 100 is complete control
In short: as §2

[10] = system: morningglory (Ipomoea coccinea); experiment: Test C preemergence; conditions: scale 0 to 100, 0 is no effect, 100 is complete control
In short: as §2

[11] = system: oilseed rape (Brassica napus); experiment: Test C preemergence; conditions: scale 0 to 100, 0 is no effect, 100 is complete control
In short: as §2

[12] = system: pigweed (Amaranthus retroflexus); experiment: Test C preemergence; conditions: scale 0 to 100, 0 is no effect, 100 is complete control
In short: as §2

[13] = system: ragweed (common ragweed, Ambrosia elatior); experiment: Test C preemergence; conditions: scale 0 to 100, 0 is no effect, 100 is complete control
In short: as §2

soybean (Glycine max) = experiment: Test C preemergence; conditions: scale 0 to 100, 0 is no effect, 100 is complete control
In short: as §2

[14] = system: waterhemp (common waterhemp, Amaranthus rudis); experiment: Test C preemergence; conditions: scale 0 to 100, 0 is no effect, 100 is complete control
In short: as §2

[15] = system: winter wheat (Triticum aestivum); experiment: Test C preemergence; conditions: scale 0 to 100, 0 is no effect, 100 is complete control
In short: as §2

[16] = system: yellow nutsedge (Cyperus esculentus); experiment: Test C preemergence; conditions: scale 0 to 100, 0 is no effect, 100 is complete control
In short: as §2

[17] = system: giant foxtail (Setaria faberii); experiment: Test C postemergence; conditions: scale 0 to 100, 0 is no effect, 100 is complete control
Description: (§3) Seeds of plant species selected from blackgrass (Alopecurus myosuroides), Italian ryegrass (Lolium multiflorum), winter wheat (Triticum aestivum), galium (catchweed bedstraw, Galium aparine), corn (Zea mays), large (Lg) crabgrass (Digitaria sanguinalis), giant foxtail (Setaria faberii), johnsongrass (Sorghum halepense), lambsquarters (Chenopodium album), morningglory (Ipomoea coccinea), yellow nutsedge (Cyperus esculentus), pigweed (Amaranthus retroflexus), ragweed (common ragweed, Ambrosia elatior), soybean (Glycine max), barnyardgrass (Echinochloa crus-galli), oilseed rape (Brassica napus), waterhemp (common waterhemp, Amaranthus rudis), and velvetleaf (Abutilon theophrasti) were planted into a blend of loam soil and sand and treated preemergence with test chemicals formulated in a non-phytotoxic solvent mixture which included a surfactant. At the same time, plants selected from these crop and weed species and also chickweed (common chickweed, Stellaria media), kochia (Kochia scoparia), and wild oat (Avena fatua), were planted in pots containing Sunshine Redi-Earth® planting medium comprising spaghnum peat moss, vermiculite, starter nutrients and dolomitic limestone and treated with postemergence applications of test chemicals formulated in the same manner. Plants ranged in height from 2 to 18 cm (1- to 4-leaf stage) for postemergence treatments. Treated plants and controls were maintained in a greenhouse for 13 to 15 days, after which time all species were compared to controls and visually evaluated. Plant response ratings, summarized in Table C, are based on a scale of 0 to 100 where 0 is no effect and 100 is complete control. A dash (-) response means no test result.

[18] = system: yellow nutsedge (Cyperus esculentus); experiment: Test C postemergence; conditions: scale 0 to 100, 0 is no effect, 100 is complete control
Description: as §3

O=c1cccc(Oc2ncc(Cl)cn2)n1-c1ccc(C(F)(F)F)cn1 [Compound 7]
Plant response rating (0 to 100 scale, 0 no effect, 100 complete control), Ryegrass, Italian ([1]; 31 g ai/ha): 10 | Plant response rating (0 to 100 scale, 0 no effect, 100 complete control), Ryegrass, Italian ([1]; 125 g ai/ha): 60 | Plant response rating (0 to 100 scale, 0 no effect, 100 complete control), Barnyardgrass ([2]; 31 g ai/ha): 20 | Plant response rating (0 to 100 scale, 0 no effect, 100 complete control), Barnyardgrass ([2]; 125 g ai/ha): 70 | Plant response rating (0 to 100 scale, 0 no effect, 100 complete control), Foxtail, Giant ([3]; 31 g ai/ha): 60 | Plant response rating (0 to 100 scale, 0 no effect, 100 complete control), Foxtail, Giant ([3]; 125 g ai/ha): 100 | Plant response rating (0 to 100 scale, 0 no effect, 100 complete control), Kochia (kochia (Kochia scoparia); 31 g ai/ha): 30 | Plant response rating (0 to 100 scale, 0 no effect, 100 complete control), Kochia (kochia (Kochia scoparia); 125 g ai/ha): 70 | Plant response rating (0 to 100 scale, 0 no effect, 100 complete control), Pigweed ([4]; 31 g ai/ha): 100 | Plant response rating (0 to 100 scale, 0 no effect, 100 complete control), Pigweed ([4]; 125 g ai/ha): 100 | Plant response rating (0 to 100 scale, 0 no effect, 100 complete control), Ragweed ([5]; 31 g ai/ha): 10 | Plant response rating (0 to 100 scale, 0 no effect, 100 complete control), Ragweed ([5]; 125 g ai/ha): 70 | Plant response rating, Barnyardgrass ([6]; 16 g ai/ha): 5 | Plant response rating, Barnyardgrass ([6]; 31 g ai/ha): 10 | Plant response rating, Barnyardgrass ([6]; 62 g ai/ha): 35 | Plant response rating, Barnyardgrass ([6]; 125 g ai/ha): 75 | Plant response rating, Blackgrass ([7]; 16 g ai/ha): 0 | Plant response rating, Blackgrass ([7]; 31 g ai/ha): 0 | Plant response rating, Blackgrass ([7]; 62 g ai/ha): 30 | Plant response rating, Blackgrass ([7]; 125 g ai/ha): 85 | Plant response rating, Corn (corn (Zea mays); 16 g ai/ha): 0 | Plant response rating, Corn (corn (Zea mays); 31 g ai/ha): 0 | Plant response rating, Corn (corn (Zea mays); 62 g ai/ha): 10 | Plant response rating, Corn (corn (Zea mays); 125 g ai/ha): 10 | Plant response rating, Johnsongrass ([8]; 16 g ai/ha): 0 | Plant response rating, Johnsongrass ([8]; 31 g ai/ha): 0 | Plant response rating, Johnsongrass ([8]; 62 g ai/ha): 10 | Plant response rating, Johnsongrass ([8]; 125 g ai/ha): 20 | Plant response rating, Lambsquarters ([9]; 16 g ai/ha): 15 | Plant response rating, Lambsquarters ([9]; 31 g ai/ha): 40 | Plant response rating, Lambsquarters ([9]; 62 g ai/ha): 75 | Plant response rating, Lambsquarters ([9]; 125 g ai/ha): 75 | Plant response rating, Morningglory ([10]; 16 g ai/ha): 0 | Plant response rating, Morningglory ([10]; 31 g ai/ha): 0 | Plant response rating, Morningglory ([10]; 62 g ai/ha): 10 | Plant response rating, Morningglory ([10]; 125 g ai/ha): 25 | Plant response rating, Oilseed Rape ([11]; 16 g ai/ha): 5 | Plant response rating, Oilseed Rape ([11]; 31 g ai/ha): 35 | Plant response rating, Oilseed Rape ([11]; 62 g ai/ha): 85 | Plant response rating, Oilseed Rape ([11]; 125 g ai/ha): 95 | Plant response rating, Pigweed ([12]; 16 g ai/ha): 20 | Plant response rating, Pigweed ([12]; 31 g ai/ha): 100 | Plant response rating, Pigweed ([12]; 62 g ai/ha): 100 | Plant response rating, Pigweed ([12]; 125 g ai/ha): 100 | Plant response rating, Ragweed ([13]; 16 g ai/ha): 35 | Plant response rating, Ragweed ([13]; 31 g ai/ha): 45 | Plant response rating, Ragweed ([13]; 62 g ai/ha): 50 | Plant response rating, Ragweed ([13]; 125 g ai/ha): 40 | Plant response rating, Soybean (soybean (Glycine max); 16 g ai/ha): 10 | Plant response rating, Soybean (soybean (Glycine max); 62 g ai/ha): 15 | Plant response rating, Soybean (soybean (Glycine max); 125 g ai/ha): 50 | Plant response rating, Waterhemp ([14]; 16 g ai/ha): 85 | Plant response rating, Waterhemp ([14]; 31 g ai/ha): 85 | Plant response rating, Waterhemp ([14]; 62 g ai/ha): 100 | Plant response rating, Waterhemp ([14]; 125 g ai/ha): 100 | Plant response rating, Wheat ([15]; 16 g ai/ha): 0 | Plant response rating, Wheat ([15]; 31 g ai/ha): 0 | Plant response rating, Wheat ([15]; 62 g ai/ha): 0 | Plant response rating, Wheat ([15]; 125 g ai/ha): 0 | Plant response rating, Nutsedge, Yellow ([16]; 16 g ai/ha): 0 | Plant response rating, Nutsedge, Yellow ([16]; 31 g ai/ha): 0 | Plant response rating, Nutsedge, Yellow ([16]; 62 g ai/ha): 0 | Plant response rating, Nutsedge, Yellow ([16]; 125 g ai/ha): 15 | Plant response rating, Foxtail, Giant ([17]; 16 g ai/ha): 10 | Plant response rating, Foxtail, Giant ([17]; 31 g ai/ha): 10 | Plant response rating, Foxtail, Giant ([17]; 62 g ai/ha): 15 | Plant response rating, Foxtail, Giant ([17]; 125 g ai/ha): 20 | Plant response rating, Nutsedge, Yellow ([18]; 16 g ai/ha): 0 | Plant response rating, Nutsedge, Yellow ([18]; 31 g ai/ha): 5 | Plant response rating, Nutsedge, Yellow ([18]; 62 g ai/ha): 5 | Plant response rating, Nutsedge, Yellow ([18]; 125 g ai/ha): 10
